# Values quoted from earlier work as cited in publication PMC6640857 (Tetrahedron, 2019).
# Conditions: relative to vancomycin; cited from earlier work
substance,measurement,value
chlorobiphenylmethyl (CBP-)vancomycin [compound 2],enhancement of antimicrobial potency by the CBP modification,≤ 100 fold
